This is an account of results in US20110178104A1, “Anti-Heparin Compounds” (POLYMEDIX INC., priority 2010, published 2011).

Structures are written as SMILES. In brackets after ≈: the same amount, converted by molar mass. Several values for one entry are separate records, joined by “and”; a condition that tells them apart may be missing. Equal entries are not always repeated. Where two headings read alike, the source gives them in different places. Starred links: 1 amine or outer side, 2 acyl side, 3 side chain; linkers in the order of their positions; H or OH if unused. Non-standard residues stand in square brackets, D forms with d. Residues, ends and D or L forms follow the SMILES beside them. *: point of attachment. NH(3-CONH2-4-OMe-phenyl) = COc1ccc(N*)cc1C(N)=O; 3Abz(6-OMe) = COc1ccc(N[*:1])cc1C(=O)[*:2]; X1 = O=C(O)COc1ccc(N[*:1])cc1C(=O)[*:2]

The test system of one assay is fondaparinux. The experiment in a line: FXa amidolytic assay (Example 10), fondaparinux. The settings on record: read-out: Fondap FXa EC50.
The subject of a further assay is Unfractionated heparin. The experiment in a line: aPTT clotting assay, UFH 0.4 U/mL in plasma (Example 10). The assay is classed as biochemical. The method, then: aPTT clotting Assay: Unfractionated heparin was mixed with plasma at a final concentration of 0.4 U/mL (or concentration which increases aPTT time to between 120 and 300 seconds). […] The ACL Elite Hemostasis analyzer (Beckman Coulter™) was used to add aPTT reagent (HemosIL SynthASil) to supplemented plasma. Clotting was initiated by addition of CaCl2 and time to clot was recorded.

The subject of assay [1] is isolated human erythrocytes. The assay is described as follows: cells. Conditions: Homo sapiens, Erythrocyte, 1 h, read-out: Hemolysis EC50. The assay is classed as cell-based. The procedure: Hemolysis assay: Cytotoxicity was also evaluated in a hemolysis assay using isolated human erythrocytes. Pooled whole human blood was centrifuged to separate the red blood cells (RBC). The isolated RBCs were rinsed and diluted in Tris-buffered saline (TBS buffer, pH 7.4) to obtain a 0.22% RBC stock suspension. Serial two-fold dilutions of test agent were assayed over a concentration range of 1000 to 0.48 μg/ml with shaking for 1 hour at 37° C. At the conclusion of the incubation time, samples were centrifuged and 30 μl of the supernatant was added to 100 μl H2O. OD405 measurements were read for hemoglobin concentration. The bee venom peptide melittin was used as a positive control. EC50 values were determined using a four parameter logistic equation: Y=Bottom+(Top-Bottom)/(1+10̂((LogEC50-X)*HillSlope)).

A further assay deals with tinzaparin. The assay is described as follows: FXa amidolytic assay (Example 10), tinzaparin. Conditions: read-out: Tinzap FXa EC50.
A further assay has as its system enoxaparin. The experiment in a line: FXa amidolytic assay (Example 10), enoxaparin. The settings on record: read-out: Enox FXa EC50.
In another assay the test system is UFH. The experiment in a line: FXa amidolytic assay (Example 10), UFH. Conditions: read-out: Heparin FXa uM EC50.
Setting [2] is: fondaparinux 0.02 μg/mL, human antithrombin, bovine Factor Xa.
[3] abbreviates: unfractionated heparin 0.4 U/mL in plasma, aPTT clotting.
The mark [4] stands for this setting: tinzaparin 0.1 ug/ml, human antithrombin, bovine Factor Xa.
The mark [5] stands for this setting: enoxaparin 0.1 ug/ml, human antithrombin, bovine Factor Xa.
Where [6] appears, read: UFH 0.03 units/mL, human antithrombin, bovine Factor Xa.

Method for enoxaparin: (§1) Two μl of test agent are added (range between 0.01 and 23 ug/ml) and incubated for 5 minutes at 23° C. Bovine Factor Xa was added to a final concentration of 0.636 nkat/mL and incubated for a further 10 minutes at 23° C.
Method for fondaparinux: as §1
Method for tinzaparin: as §1

With `COc1ccc(NC(=O)[C@H](CCCCN)NC(=O)c2cc(NC(=O)[C@H](CCCCN)NC(=O)c3cc(NC(=O)[C@H](CCCCN)NC(=O)c4cc(NC(=O)[C@H](CCCCN)NC(=O)[C@@H](N)Cc5ccccc5)ccc4OC)ccc3OC)ccc2OC)cc1C(N)=O` [Compound 357] (H-FK[3Abz(6-OMe)]K[3Abz(6-OMe)]K[3Abz(6-OMe)]K-{NH(3-CONH2-4-OMe-phenyl)}), the concentration giving a half-maximal response (EC50) was 2.22 µM in the assay on fondaparinux (setting [2]); 1.42 µM in the assay with Unfractionated heparin (setting [3]); greater than 1000 mg/L in assay [1] (human RBC, 1 hour at 37° C.); 0.118 µM in the assay with tinzaparin (setting [4]); 0.248 µM in the assay with enoxaparin (setting [5]); 0.187 µM with UFH (setting [6]).
On to `COc1ccc(NC(=O)[C@H](CCCNC(=N)N)NC(=O)c2cc(NC(=O)[C@H](CCCNC(=N)N)NC(=O)c3cc(NC(=O)[C@H](CCCNC(=N)N)NC(=O)c4cc(NC(C)=O)ccc4OC)ccc3OC)ccc2OC)cc1C(=O)N[C@@H](Cc1c[nH]c2ccccc12)C(=O)O` [Compound 310], for which the EC50 in the assay with fondaparinux (setting [2]) was 0.098 µM; in the assay with Unfractionated heparin (setting [3]) it was greater than 10 µM; in assay [1] (human RBC, 1 hour at 37° C.), roughly 1000 mg/L (≈ 763 µM); with tinzaparin (setting [4]), 0.141 µM; in the assay on enoxaparin (setting [5]), 0.119 µM; in the assay with UFH (setting [6]), 0.242 µM.
Take `COc1ccc(NC(=O)[C@H](CCCCN)NC(=O)c2cc(NC(=O)[C@H](CCCCN)NC(=O)c3cc(NC(=O)[C@H](CCCCN)NC(=O)c4cc(NC(=O)[C@H](CCCCN)NC(=O)[C@@H](N)Cc5ccccc5)ccc4OC)ccc3OC)ccc2OCC(=O)O)cc1C(N)=O` [Compound 358] (H-FK[3Abz(6-OMe)]K[3Abz(6-OMe)]K[X1]K-{NH(3-CONH2-4-OMe-phenyl)}): the EC50 with fondaparinux (setting [2]) is 1.6 µM; with Unfractionated heparin (setting [3]), 1.93 µM; in assay [1] (human RBC, 1 hour at 37° C.), greater than 1000 mg/L; in the assay on tinzaparin (setting [4]), 0.184 µM; in the assay on enoxaparin (setting [5]), 0.324 µM; in the assay on UFH (setting [6]), 0.314 µM.
`COc1ccc(C(=O)N[C@@H](CCCCN)C(=O)Nc2ccc(OC)c(C(=O)N[C@@H](CCCCN)C(=O)Nc3ccc(OC)c(C(=O)N[C@@H](CCCCN)C(=O)Nc4ccc(OC)c(C(N)=O)c4)c3)c2)cc1NC(=O)[C@@H](N)CCCCN` [Compound 237]: the EC50 is 3.62 µM and 3.73 µM in the assay on fondaparinux (setting [2]); 1.14 µM in the assay with Unfractionated heparin (setting [3]); 0.109 µM and 0.121 µM in the assay with tinzaparin (setting [4]); 0.177 µM and 0.341 µM with enoxaparin (setting [5]); 0.199 µM with UFH (setting [6]).
Consider `COc1ccc(NC(=O)[C@@H](CCCNC(=N)N)NC(=O)c2cc(NC(=O)[C@@H](CCCNC(N)=O)NC(=O)c3cc(NC(=O)[C@@H](CCCNC(N)=O)NC(=O)c4cc(NC(=O)[C@H](N)CCCNC(=N)N)ccc4OC)ccc3OC)ccc2OC)cc1C(N)=O` [Compound 376], for which the concentration giving a half-maximal response (EC50) turned out to be 1.67 µM in the assay on fondaparinux (setting [2]); 1.89 µM in the assay on Unfractionated heparin (setting [3]); 0.114 µM in the assay with tinzaparin (setting [4]); 0.191 µM in the assay on enoxaparin (setting [5]); 0.416 µM in the assay on UFH (setting [6]).
As to `COc1ccc(NC(=O)[C@@H](CCCNC(N)=O)NC(=O)c2cc(NC(=O)[C@@H](CCCNC(N)=O)NC(=O)c3cc(NC(=O)[C@@H](CCCNC(=N)N)NC(=O)c4cc(NC(=O)[C@H](N)CCCNC(=N)N)ccc4OC)ccc3OC)ccc2OC)cc1C(N)=O` [Compound 375], the concentration giving a half-maximal response (EC50) is 1.26 µM with fondaparinux (setting [2]); 2.69 µM in the assay with Unfractionated heparin (setting [3]); 0.076 µM with tinzaparin (setting [4]); 0.113 µM with enoxaparin (setting [5]); 0.681 µM in the assay on UFH (setting [6]).
Take `COc1ccc(NC(=O)[C@@H](CCCNC(N)=O)NC(=O)c2cc(NC(=O)[C@@H](CCCNC(=N)N)NC(=O)c3cc(NC(=O)[C@@H](CCCNC(=N)N)NC(=O)c4cc(NC(C)=O)ccc4OC)ccc3OC)ccc2OCC(=O)O)cc1C(=O)N[C@H](Cc1c[nH]c2ccccc12)C(N)=O` [Compound 332]: the EC50 in the assay on fondaparinux (setting [2]) is greater than 5 µM; in the assay with Unfractionated heparin (setting [3]) it was greater than 10 µM; in assay [1] (human RBC, 1 hour at 37° C.), 1000 mg/L (≈ 738 µM); with tinzaparin (setting [4]), greater than 5 µM; in the assay on enoxaparin (setting [5]), greater than 5 µM; with UFH (setting [6]), greater than 5 µM.
Consider `COc1ccc(NC(=O)[C@@H](CCCNC(=N)N)NC(=O)c2cc(NC(=O)[C@@H](CCCNC(N)=O)NC(=O)c3cc(NC(=O)[C@@H](CCCNC(=N)N)NC(=O)c4cc(NC(=O)[C@H](N)CCCNC(N)=O)ccc4OC)ccc3OC)ccc2OC)cc1C(N)=O` [Compound 378], for which the half-maximal effective concentration (EC50) in the assay with fondaparinux stood at 2.33 µM; with Unfractionated heparin, 2.01 µM; in the assay with tinzaparin, 0.073 µM; with enoxaparin it was 0.11 µM; in the assay on UFH, 0.49 µM.
As to `COc1cc(OC)c(C(=O)N[C@H]2CC[C@@H](NC(=O)c3cc(C(=O)NCCN)c(OCCCCCN)cc3OCCCCCN)CC2)cc1C(=O)N[C@H]1CC[C@@H](NC(=O)c2cc(C(=O)NCCN)c(OCCCCCN)cc2OCCCCCN)CC1` [Compound 367], the 50% effective concentration (EC50) in the assay with fondaparinux (setting [2]) was determined as 0.514 µM; with Unfractionated heparin (setting [3]) it was 1.27 µM; in the assay with tinzaparin (setting [4]) it was 0.106 µM; in the assay with enoxaparin (setting [5]), 0.042 µM; in the assay with UFH (setting [6]), 0.085 µM.
Taken in the same sequence, the figures for `COc1ccc(NC(=O)[C@@H](CCCNC(=N)N)NC(=O)c2cc(NC(=O)[C@@H](CCCNC(=N)N)NC(=O)c3cc(NC(=O)[C@@H](CCCNC(N)=O)NC(=O)c4cc(NC(=O)[C@H](N)CCCNC(N)=O)ccc4OC)ccc3OC)ccc2OC)cc1C(N)=O` [Compound 374] were 1.81 µM, 2.42 µM, 0.114 µM, 0.157 µM and 0.677 µM.
Taken in the same sequence, the figures for `COc1cc(OC)c(C(=O)N[C@H]2CC[C@@H](NC(=O)c3cc(C(=O)N[C@H]4CC[C@@H](N=C(N(C)C)N(C)C)CC4)c(OC)cc3OC)CC2)cc1C(N)=O` [Compound 388] were greater than 10 µM, greater than 10 µM, greater than 5 µM, greater than 5 µM and greater than 20 µM.
In the case of `NCCCC[C@H](NC(=O)c1cccc(NC(=O)[C@H](CCCCN)NC(=O)c2cccc(NC(=O)[C@H](CCCCN)NC(=O)c3cccc(NC(=O)[C@@H](N)CCCCN)c3)c2)c1)C(=O)Nc1cccc(C(N)=O)c1` [Compound 368], the EC50 is greater than 10 µM with fondaparinux (setting [2]); 9.25 µM in the assay with Unfractionated heparin (setting [3]); 3.39 µM in the assay on tinzaparin (setting [4]); 11 µM in the assay with enoxaparin (setting [5]); 3.69 µM with UFH (setting [6]).
In the case of `COc1ccc(NC(=O)[C@H](CCCCN)NC(=O)c2cc(NC(=O)[C@H](CCCCN)NC(=O)c3cc(NC(=O)[C@H](CCCCN)NC(=O)c4cc(NC(=O)[C@H](CCCCN)NC(=O)Cc5ccccc5)ccc4OC)ccc3OC)ccc2OCC(=O)O)cc1C(N)=O` [Compound 356], the concentration giving a half-maximal response (EC50) was 0.512 µM with fondaparinux (setting [2]); 1.89 µM with Unfractionated heparin (setting [3]); greater than 1000 mg/L in assay [1]; 0.1 µM with tinzaparin (setting [4]); 0.127 µM in the assay on enoxaparin (setting [5]); 0.204 µM in the assay with UFH (setting [6]).
On to `COc1ccc(NC(=O)[C@@H](CCCNC(N)=O)NC(=O)c2cc(NC(=O)[C@@H](CCCNC(=N)N)NC(=O)c3cc(NC(=O)[C@@H](CCCNC(N)=O)NC(=O)c4cc(NC(=O)[C@H](N)CCCNC(N)=O)ccc4OC)ccc3OC)ccc2OC)cc1C(N)=O` [Compound 371], for which the EC50 is greater than 10 µM with fondaparinux (setting [2]); 3.26 µM in the assay with Unfractionated heparin (setting [3]); 0.197 µM in the assay with tinzaparin (setting [4]); 0.252 µM with enoxaparin (setting [5]); greater than 10 µM in the assay with UFH (setting [6]).
As for `COc1cc(OC)c(C(=O)N[C@H]2CC[C@@H](NC(=O)c3cc(C(=O)N[C@H]4CC[C@@H](N=C(N(C)C)N(C)C)CC4)c(OC)cc3OC)CC2)cc1C(=O)NCCN` [Compound 382], the concentration for a half-maximal effect (EC50) with fondaparinux (setting [2]) is greater than 10 µM; in the assay with Unfractionated heparin (setting [3]), greater than 10 µM; in the assay on tinzaparin (setting [4]), greater than 5 µM; in the assay with enoxaparin (setting [5]), greater than 5 µM; in the assay on UFH (setting [6]) it was greater than 20 µM.
As for `COc1ccc(NC(=O)[C@H](CCCCCN)NC(=O)c2cc(NC(=O)[C@H](CCCCCN)NC(=O)c3cc(NC(=O)[C@H](CCCCCN)NC(=O)c4cc(NC(=O)[C@@H](N)CCCCCN)ccc4OC)ccc3OC)ccc2OC)cc1C(N)=O` [Compound 236], the half-maximal effective concentration (EC50) in the assay with fondaparinux (setting [2]) is greater than 12.6 µM; in the assay with Unfractionated heparin (setting [3]), 1.93 µM; with tinzaparin (setting [4]) it was 0.396 µM; in the assay with enoxaparin (setting [5]), 0.099 µM; in the assay on UFH (setting [6]), 0.364 µM.
Regarding `COc1ccc(NC(=O)[C@@H](CCCNC(=N)N)NC(=O)c2cc(NC(=O)[C@@H](CCCNC(N)=O)NC(=O)c3cc(NC(=O)[C@@H](CCCNC(N)=O)NC(=O)c4cc(NC(=O)[C@H](N)CCCNC(N)=O)ccc4OC)ccc3OC)ccc2OC)cc1C(N)=O` [Compound 370], the EC50 in the assay with fondaparinux (setting [2]) was greater than 10 µM; with Unfractionated heparin (setting [3]) it was 1.46 µM; in the assay with tinzaparin (setting [4]) it was 0.259 µM; in the assay on enoxaparin (setting [5]), 0.463 µM; in the assay with UFH (setting [6]), 12.5 µM.
The matching figures for `COc1cc(OC)c(C(=O)N[C@H]2CC[C@@H](NC(=O)c3cc(C(=O)N[C@H]4CC[C@@H](N)CC4)c(OC)cc3OC)CC2)cc1C(=O)NCCN` [Compound 383]: greater than 10 µM, greater than 10 µM, greater than 5 µM, greater than 5 µM and greater than 20 µM.
